Measured values from PubChem BioAssay (NCI).
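Exposure lasted 48 hours, with cells grown in 96-well plates and compounds tested at five concentrations. GI50 marks 50% less growth. At the TGI there is no net growth.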

Key:
Test in all cases: inhibition of tumour cell growth, NCI panel, 48 h
[1] = test system: MALME-3M melanoma
[2] = test system: COLO 205 colon
[3] = test system: U251 CNS
[4] = test system: SF-295 CNS
[5] = test system: UACC-62 melanoma
[6] = test system: HL-60(TB) leukemia
[7] = test system: SNB-75 CNS
[8] = test system: SF-539 CNS
[9] = test system: LOX IMVI melanoma
[10] = test system: MCF7 breast

Structure (SMILES) | TGI [1] [µM] | TGI [2] [µM] | TGI [3] [µM] | TGI [4] [µM] | TGI [5] [µM] | TGI [6] [µM] | TGI [7] [µM] | TGI [8] [µM] | TGI [9] [µM] | GI50 [5] [µM] | GI50 [7] [µM] | GI50 [8] [µM] | TGI [10] [µM]
CCOC(=O)[C@@]12C(C)=CC(=O)O[C@]1(C)C1C(=O)NC(=O)C12 (stereo partly specified) | > 100 | > 100 | > 100 | > 100 | > 100 | > 100 | > 100 | > 100 | > 100 | – | – | – | –
Cc1cc(Cl)cc2c1NC(=O)C2(O)CC(=O)c1ccc(Br)cc1 (stereo unspecified) | > 100 | > 100 | > 100 | > 100 | 56.2 | 48.2 | > 100 | > 100 | > 100 | – | – | – | –
O=C(c1ccccc1)c1nnn(Cc2ccccc2Cn2nnc(C(=O)c3ccccc3)c2C(=O)c2ccccc2)c1C(=O)c1ccccc1 | > 100 | > 100 | > 100 | > 100 | > 100 | > 100 | > 100 | > 100 | > 100 | – | – | – | –
Cc1ccc(N2C(=O)/C(=C/c3ccc(N(CCC#N)CCC#N)cc3)N=C2COc2ccc(Cl)cc2Cl)cc1 | > 100 | > 100 | > 100 | > 100 | > 100 | > 100 | > 100 | > 100 | > 100 | – | – | – | –
Brc1cc(C2OCCCO2)ccc1OCc1ccccc1 | > 100 | 56.9 | – | > 100 | > 100 | > 100 | > 100 | > 100 | 63.5 | – | – | – | –
CN1CCC(c2c(O)cc(O)c3c(=O)cc(-c4ccccc4Cl)oc23)C(O)C1 (stereo unspecified) | 0.598 | 0.255 | > 100 | – | 0.197 | – | 0.18 | > 100 | – | 0.0506 | 0.0482 | 0.288 | –
CC1=NN(c2ccccc2)C(=O)C12[C@H](c1ccccc1)C2(C#N)C#N (stereo partly specified) | 11.6 | 4.42 | 29.6 | 25.5 | 12.4 | 7.81 | 19.3 | 27.7 | 4.63 | – | – | – | –
O=C1CC(c2cccc(Cl)c2)Oc2ccccc21 (stereo unspecified) | – | 69.3 | > 100 | 53.6 | 29.8 | 57.1 | 66.6 | 36.3 | 56.5 | – | – | – | 39.4
CCC1CCCCN1CC(C(C)=O)C(c1ccccc1)c1c(O)c2ccccc2oc1=O (stereo unspecified) | > 100 | > 100 | > 100 | > 100 | > 100 | > 100 | > 100 | > 100 | > 100 | – | – | – | –
O=[N+]([O-])c1cc(/C=N\NS(=O)(=O)c2ccc(Cl)cc2)c(O)c([N+](=O)[O-])c1 | > 100 | 31 | 54.3 | > 100 | > 100 | 54 | 73.5 | 44.2 | > 100 | – | – | – | –
COC(=O)/C(C#N)=C1\CCC(OC)N1C (stereo unspecified) | > 100 | > 100 | > 100 | > 100 | > 100 | > 100 | > 100 | > 100 | > 100 | – | – | – | –
CCCCNS(=O)(=O)c1ccc(-c2ccc3c(c2)-c2ccc(S(=O)(=O)NCCCC)cc2S3(=O)=O)cc1 | 49.2 | > 100 | 55.5 | 45.1 | 34.3 | > 100 | – | 27.4 | 38 | – | – | – | –
